Test in all cases: NCI-60 cell line screen, 48 h
In assay [1] the test system is A498 renal.
The subject of assay [2] is CCRF-CEM leukemia.
Assay [3] has as its system COLO 205 colon.
Assay [4] concerns HL-60(TB) leukemia.
The test system of assay [5] is HT29 colon.
Assay [6] concerns M14 melanoma.
Assay [7] has as its system MOLT-4 leukemia.
In assay [8] the test system is OVCAR-5 ovarian.
Assay [9] deals with PC-3 prostate.
For assay [10], the system named is SF-268 CNS.

Here are results for 16 compounds from PubChem BioAssay (NCI).

Several values for one entry are separate records, joined by “and”; a condition that tells them apart may be missing. Equal entries are not always repeated.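 The compound was tested at five concentrations on cells cultured in 96-well plates, with a 48-hour exposure period. At the GI50, growth is halved. At the TGI there is no net growth.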

Consider `COc1ccc2cc(C(=O)/C=C/c3cccc(Cl)c3Cl)ccc2c1`, for which the GI50 in assay [1] was 18.1 µM; in [2], 52.6 µM; in [3], 24.7 µM; in [4] it was 24.2 µM; in assay [5] it was 7.33 µM; in [6] it was 6.51 µM. In addition, the GI50 in assay [7] is 27.5 µM; in [8], 36.9 µM; in assay [9], 12.4 µM; in assay [10], 18.8 µM. Moreover, the TGI in assay [1] was 32.1 µM; in [2], above 100 µM; in [3], above 71.6 µM; in [4], above 100 µM; in assay [5], above 64.2 µM; in assay [6] it was above 100 µM. Further, the TGI was above 100 µM in assay [7], 95.2 µM in assay [8], above 81.9 µM in [9] and above 92.2 µM in assay [10].
On to `Cn1ccc(=Nc2ccc(NC(=O)c3ccc(N=c4ccn(C)c5ccc([N+](=O)[O-])cc45)cc3)cc2)cc1`, for which the GI50 was above 100 µM in assay [1]; above 100 µM in assay [2]; 3.94 µM in assay [3]; 5.34 µM in [4]; 7.54 µM in assay [5]; above 100 µM in [6]. The GI50 in assay [7] is above 100 µM; in assay [8], above 100 µM; in assay [9] it was 9.2 µM; in [10], 4.37 µM. For the same compound, the TGI in assay [1], in assay [2], in [3], in assay [4], in assay [5] and in assay [6] was above 100 µM throughout. The TGI in assay [7] is above 100 µM; in [8], above 100 µM; in assay [9], above 100 µM; in assay [10], 98.2 µM.
Regarding `CC[N+](CC)=c1ccc2nc3c(cc(NCc4ccccc4)c4ccccc43)oc-2c1`, the GI50 in assay [1] is 0.751 µM; in assay [2], 0.476 µM; in assay [3] it was 0.153 µM; in [4], 0.209 µM; in assay [5] it was 0.189 µM; in assay [6] it was 0.273 µM. The GI50 in assay [7] was 0.346 µM; in assay [8], 0.681 µM; in assay [9], 0.264 µM; in [10], 0.307 µM. Further, the TGI in assay [1] worked out at 4.62 µM; in [2] it was 7.15 µM; in [3], 0.311 µM; in [4], 1.11 µM; in assay [5], 0.773 µM; in assay [6], 0.75 µM. For the same compound, the TGI in assay [7] was determined as 3.17 µM; in assay [8], 2.19 µM; in assay [9], 1.63 µM; in [10], 1.51 µM.
Consider `Nc1ccc(C#Cc2cncnc2Nc2ccc(OCc3cccc(F)c3)c(Cl)c2)cc1`, for which the GI50 in assay [1] was 1.7 µM; in assay [2] it was 5.72 µM; in assay [3], above 25 µM; in assay [4], 5.68 µM; in assay [5], 10.1 µM; in [6], above 23.6 µM. Besides, the GI50 in assay [7] was 19.5 µM; in assay [8] it was above 25 µM; in assay [9] it was 8.91 µM; in assay [10], 16.5 µM. Further, the TGI in assay [1] is above 15.4 µM; in assay [2] it was above 25 µM; in [3] it was above 25 µM; in assay [4] it was above 25 µM; in [5], above 25 µM; in [6] it was above 25 µM. Besides, the TGI in assay [7], in [8], in [9] and in assay [10] was above 25 µM in each case.
For `NC(=O)c1[nH]nc(C2OC(CO)C(O)C2O)c1O` (configuration not stated), the TGI in assay [1] was determined as 444 µM; in [2] it was 2360 µM; in [3] it was 1660 µM; in assay [4] it was 63.7 µM; in [5], 3420 µM; in assay [6], 882 µM. The TGI in assay [7] came out at 386 µM; in assay [8], 2830 µM; in assay [9], 794 µM; in [10], 3560 µM.
In the case of `COc1cc2cc(Oc3ccc(NC(=O)Nc4ccccc4)cc3)c(C)nc2cc1OCCN1CCCCC1`, the GI50 in [1] is 4.75 µM; in assay [2] it was 1.05 µM; in assay [3], 6.25 µM; in assay [4] it was 6.43 µM; in [5], 3.32 µM; in assay [6], 5.63 µM. Also, the GI50 was 4.98 µM in assay [7], 6 µM in assay [8], 4.49 µM in [9] and 5.88 µM in assay [10]. Moreover, the TGI came out at 9.3 µM in assay [1]; 4.29 µM in assay [2]; 13.1 µM in assay [3]; 13.3 µM in assay [4]; 9.35 µM in assay [5]; 11.1 µM in assay [6]. For the same compound, the TGI turned out to be 11.7 µM in [7], 11.5 µM in assay [8], 9.83 µM in [9] and 12.6 µM in assay [10].
`CCc1cccc(CC)c1NC(=S)NC(=O)c1ccc(Br)cc1`: the TGI in [1] was above 100 µM; in assay [2] it was above 31.6 µM; in assay [3] it was above 53.3 µM; in assay [4], 26.3 µM; in assay [5], above 100 µM; in [6], above 81.2 µM. In addition, the TGI in assay [7] was 53.9 µM; in [8], above 100 µM; in assay [9], above 100 µM; in assay [10] it was above 100 µM.
As for `Nc1nc2ccc([C@@H]3Nc4ccc5[nH]ncc5c4[C@H]4[C@H]5CCC(C5)[C@H]43)cc2s1`, the GI50 in assay [1] was 0.288 µM; in assay [2] it was 0.507 µM; in assay [3], 1.08 µM; in [4] it was 0.345 µM; in [5], 0.435 µM; in assay [6], 0.654 µM. Besides, the GI50 is 0.632 µM in [7], 1.83 µM in [8], 1.04 µM in [9] and 1.49 µM in assay [10]. The TGI was found to be 1.78 µM in assay [1]; 19 µM in assay [2]; 2.92 µM in assay [3]; 1.37 µM in assay [4]; 11 µM in assay [5]; 2.62 µM in [6]. Also, the TGI in assay [7] came to 3.05 µM; in assay [8], 4.41 µM; in [9] it was 3.2 µM; in assay [10], 4.52 µM.
As to `Cc1cc(S(=O)(=O)Nc2nc3ccsc3c(=O)n2Cc2ccco2)c(S)cc1Cl`, the GI50 was above 100 µM in assay [1]; 50.7 µM in assay [2]; above 100 µM in assay [3]; 25.5 µM in assay [4]; above 100 µM in assay [5]; above 100 µM in assay [6]. In addition, the GI50 is 19.4 µM in assay [7], above 100 µM in assay [8], above 100 µM in [9] and 99 µM in [10]. The TGI in [1], in assay [2], in assay [3], in assay [4], in assay [5] and in assay [6] was above 100 µM throughout. Besides, the TGI is 84.2 µM in assay [7], above 100 µM in assay [8], above 100 µM in assay [9] and above 100 µM in [10].
Consider `C/C=C(\C)C(=O)O[C@@H]1C(O)[C@H]2OC(COC(=O)CCC(=O)CCCCCC[C@H](CCCCC)O[C@@H]3OC(C)[C@H](OC(C)=O)C(O)[C@H]3O2)[C@H]1OC(=O)/C=C/c1ccccc1` (some centres not stated), for which the GI50 in assay [1] is 0.12 µM; in assay [2], 0.408 µM; in assay [3] it was below 0.01 µM; in [4], 0.127 µM; in assay [5], below 0.01 µM; in [6] it was below 0.01 µM. Also, the GI50 in [7] was 3.28 µM; in [8], 2.16 µM; in assay [9], below 0.0132 µM; in assay [10] it was 0.101 µM. Further, the TGI in assay [1] is 5.59 µM; in assay [2], above 100 µM; in assay [3], 1.79 µM; in [4] it was 18.9 µM; in assay [5], 0.652 µM; in [6] it was 0.123 µM. The TGI was above 100 µM in assay [7], above 64.2 µM in [8], 16.7 µM in assay [9] and 15.6 µM in assay [10].
Regarding `CN(C)CCNC(=O)c1cccc2cc3ccccc3nc12`, the GI50 in assay [1] was 1.26 µM; in assay [2], 1.37 µM; in assay [3], 0.779 µM; in [4], 1.03 µM; in assay [5], 0.774 µM; in assay [6] it was 1.43 µM. The GI50 in assay [7] is 0.399 µM; in [8], 2.27 µM; in assay [9] it was 2.33 µM; in assay [10], 1.65 µM. The TGI in [1] was 2.8 µM; in assay [2] it was above 32.1 µM; in [3] it was 3.55 µM; in [4] it was 5.3 µM; in assay [5] it was 3.15 µM; in [6], 3.29 µM. The TGI is 7.95 µM in assay [7], above 24.3 µM in [8], 10.8 µM in assay [9] and 8.18 µM in assay [10].
For the compound `CCC(=O)OC1CCn2c1nc1c2C(=O)C(C)=C(N2CC2)C1=O` (configuration not stated), the TGI is 0.106 µM in assay [1]; 3.85 µM and 21.8 µM in assay [2]; 0.235 µM and 0.561 µM in assay [3]; 0.432 µM and 2.63 µM in assay [4]; 1.09 µM and 0.495 µM in assay [5]; 0.0436 µM and 0.141 µM in assay [6]. Moreover, the TGI is above 83.6 µM in [7]; 0.589 µM and 0.229 µM in assay [8]; 0.306 µM in assay [9]; 1.22 µM and 0.254 µM in [10]. The GI50 in [2] is 0.523 µM; in [3], 0.101 µM; in assay [4], 0.169 µM; in assay [6] it was 0.0185 µM; in assay [7], 1.46 µM; in assay [8], 0.0743 µM. Besides, the GI50 in assay [10] was 0.0309 µM.
Regarding `O=C1C(Cl)=C(Nc2ccc3cn[nH]c3c2)C(=O)c2ccccc21`, the GI50 in assay [1] was 3.05 µM; in [2], 1.52 µM; in [3], 1.42 µM; in assay [4], 1.7 µM; in [5], 1.98 µM; in assay [6], 1.59 µM. Also, the GI50 in assay [7] was 1.47 µM; in assay [8] it was 1.8 µM; in [9], 1.17 µM; in [10], 1.63 µM. Further, the TGI in assay [1] is 8.9 µM; in assay [2], 3.91 µM; in assay [3], 2.89 µM; in [4], 4.45 µM; in assay [5] it was 3.72 µM; in assay [6] it was 3.01 µM. Moreover, the TGI turned out to be 4.15 µM in assay [7], 3.21 µM in assay [8], 2.44 µM in assay [9] and 3 µM in assay [10].
On to `O=C(O)CCC1COc2ccccc2O1` (configuration not stated), for which the TGI in [1], in assay [2], in assay [3], in [4], in [5] and in [6] was above 10 µM throughout. The TGI in assay [7], in [8], in [9] and in assay [10] was above 10 µM each time.
For `COC(=O)c1ccccc1NC(=O)C(=O)CC(=O)c1ccccc1NC1=CC(=O)C(=O)c2ccccc21`, the TGI is above 56.2 µM in assay [1]; 33.9 µM in [2]; 53.1 µM in [3]; 12 µM in assay [4]; above 74.9 µM in [5]; 17.9 µM in assay [6]. In addition, the TGI in assay [7] came to 51.1 µM; in assay [8], 57.7 µM; in assay [9], 42.3 µM; in assay [10], 30.3 µM.
Turning to `O=C(Oc1ccc([N+](=O)[O-])cc1)N1CCN(Cc2cccc(Oc3ccccc3)c2)CC1`, the GI50 was above 47.6 µM in assay [1]; 40.5 µM in assay [2]; above 83.5 µM in assay [3]; 24.2 µM in assay [4]; 40.6 µM in [5]; above 100 µM in assay [6]. Besides, the GI50 in assay [7] is 38.9 µM; in [8] it was above 100 µM; in [9] it was above 69.6 µM; in assay [10], above 100 µM. In addition, the TGI in assay [1], in assay [2], in assay [3], in assay [4], in [5] and in assay [6] was above 100 µM each time. The TGI in [7], in assay [8], in assay [9] and in assay [10] was above 100 µM throughout.
